Source: patent publication US20120207835A1, “BROAD-SPECTRUM BIOCIDE COMPOSITIONS AND A METHOD FOR THEIR PREPARATION” (BROMINE COMPOUNDS LTD., priority 2009, published 2012)

Tests used:
A. niger = assay: Agar plate test: diameter of the A. niger growth ring after contact with biocide matrix; assay type: cell-based; conditions: for A. niger diameters (cm), 3 days: day 3; for A. niger diameters (cm), 7 days: day 7; for A. niger diameters (cm), 14 days: day 14; for A. niger diameters (cm), 21 days: day 21; for A. niger diameters (cm), 28 days: day 28
Experimental: Samples of the prepared materials were dispersed in hot (˜45° C.) agar, under stirring. […] Pure DBNPA and commercial biocide (OTW) were used as standards. All the results were duplicated to assure accuracy.

[1] = room temperature; cited from earlier work
[2] = 300 ppm in agar (column DBNPA in agar, ppm), inoculum plug ID 1 cm
[3] = 300 ppm in agar, inoculum plug ID 1 cm

CCCCCCCCn1sccc1=O [OTW neat, N-octylisothiazolinone]
A. niger diameters (cm), 3 days (A. niger; [2]): 1 cm
A. niger diameters (cm), 7 days (A. niger; [3]): 1 cm
A. niger diameters (cm), 14 days (A. niger; [3]): 1 cm
A. niger diameters (cm), 21 days (A. niger; [3]): 1 cm
A. niger diameters (cm), 28 days (A. niger; [3]): 1 cm

N#CC(Br)(Br)C(N)=O [DBNPA, 2,2-dibromo-3-nitrilopropionamide]
time to loss of activity by decomposition in aqueous media [1]: 2 to 3 days
concentration at which activity is demonstrated (A. niger): > 1000 ppm
time over which activity is lost (A. niger; 300 ppm DBNPA): 3 days
A. niger diameters (cm), 3 days (A. niger; [2]): 3.7 cm
A. niger diameters (cm), 7 days (A. niger; [3]): 10 cm
A. niger diameters (cm), 14 days (A. niger; [3]): 10 cm
A. niger diameters (cm), 21 days (A. niger; [3]): 10 cm
A. niger diameters (cm), 28 days (A. niger; [3]): 10 cm
A. niger diameters (cm), 3 days (A. niger; 1000 ppm DBNPA in agar): 1 cm
A. niger diameters (cm), 7 days (A. niger; 1000 ppm DBNPA in agar): 1 cm
A. niger diameters (cm), 14 days (A. niger; 1000 ppm DBNPA in agar): 1 cm
A. niger diameters (cm), 21 days (A. niger; 1000 ppm DBNPA in agar): 1 cm
A. niger diameters (cm), 28 days (A. niger; 1000 ppm DBNPA in agar): 1 cm
